Data as given in paper PMC8522752 (Antimicrobial Agents and Chemotherapy, 2021).
Where two headings read alike, the source gives them in different places.

What was measured:
[1] = mice, 1,000 mg/kg loading then 500 mg/kg BID for 3 days, oral
[2] = test system: Yellow Fever virus YFV 17D; assay: microbe, parasite or virus in culture; format: cell-based; settings: Huh-7, read-out: EC90 (reduce virus yield by 1 log10) (converted)
Influenza A and B = assay: Antiviral specificity panel, Influenza A and B in MDCK; format: cell-based; settings: Influenza A virus, Influenza A and B (RNA), read-out: EC50 (inhibit viral replication 50%)
Zika virus MR766 = assay: Neutral red CPE inhibition assay, Zika MR766 in Huh-7; format: cell-based; settings: Huh-7, read-out: EC50 (inhibition of virus-induced CPE)
[3] = test system: Yellow Fever virus YFV 17D; assay: microbe, parasite or virus in culture; format: cell-based; settings: Huh-7, read-out: EC50 (inhibition of virus-induced CPE)
in vitro [4] = settings: human, hamster
in vivo [5] = settings: male, CD-1, mouse, po, 420 mg/kg
HCV = assay: Antiviral specificity panel, HCV in Huh-7; format: cell-based, hepatitis C virus
[6] = test system: West Nile virus Kern 515, WNo2; assay: Neutral red CPE inhibition assay, West Nile virus in Huh-7; format: cell-based; settings: West Nile Kern 515, WNo2, Huh-7, neutral red assay, read-out: EC50 (inhibition of virus-induced CPE)
flaviviruses [7] = assay: microbe, parasite or virus in culture
Herpes simplex-1 = assay: Antiviral specificity panel, Herpes simplex-1 in Vero; format: cell-based; settings: Herpes simplex-1 (DNA), read-out: EC50 (inhibit viral replication 50%)
HIV-1 = assay: Antiviral specificity panel, HIV-1 in CEM-SS; format: cell-based; settings: Human immunodeficiency virus 1, HIV-1 (RNA), read-out: EC50 (inhibit viral replication 50%)
Chikungunya virus = assay: Antiviral specificity panel, Chikungunya in Huh-7; format: cell-based; settings: Chikungunya (RNA), read-out: EC50 (inhibit viral replication 50%)
[8] = Cytotoxicity in uninfected BHK-21 cells (MTT, DENV2 study); format: cell-based; settings: hamster, BHK-21 without virus, Dengue-2 clinical isolate study, bound = highest concentration tested
Dengue-2 New Guinea C [9] = assay: Neutral red CPE inhibition assay, Dengue-2 New Guinea C in Huh-7; format: cell-based; settings: Dengue virus, Huh-7, neutral red assay, read-out: EC50 (inhibition of virus-induced CPE)
[10] = test system: West Nile virus Kern 515, WNo2; assay: microbe, parasite or virus in culture; format: cell-based; settings: West Nile Kern 515, WNo2, Huh-7, VYR assay, read-out: EC90 (reduce virus yield by 1 log10) (converted)
Dengue-2 New Guinea C [11] = assay: microbe, parasite or virus in culture; format: cell-based; settings: Huh-7, VYR assay, read-out: EC90 (reduce virus yield by 1 log10) (converted)
Usutu virus TC-508 [12] = assay: microbe, parasite or virus in culture; format: cell-based; settings: Usutu TC-508, Huh-7, VYR assay, read-out: EC90 (reduce virus yield by 1 log10) (converted)
flaviviruses [13] = test system: flaviviruses
Powassan virus LB [14] = assay: microbe, parasite or virus in culture; format: cell-based; settings: BHK-21, read-out: EC50 (inhibition of virus-induced CPE)
in vitro [15] = settings: dog
DENV2 (clinical isolate) [16] = assay: DENV2 clinical isolate CPE inhibition in human PBMCs (MTT); format: cell-based, dengue virus
BHK-21 cells = settings: hamster
[17] = test system: Eastern equine encephalitis virus; assay: microbe, parasite or virus in culture; format: cell-based; settings: Huh-7, read-out: EC50 (inhibit viral replication 50%)
DENV2 (clinical isolate) [18] = assay: DENV2 clinical isolate CPE inhibition in BHK-21 cells (MTT); format: cell-based, dengue virus
[19] = Plasma pharmacokinetics in cynomolgus monkeys after oral AT-752; settings: monkeys, oral AT-752 300 mg/kg
Rhinovirus = assay: Antiviral specificity panel, Rhinovirus in H1-HeLa; format: cell-based; settings: Enterovirus, Rhinovirus (RNA), read-out: EC50 (inhibit viral replication 50%)
in vitro [20] = settings: African green monkey
[21] = test system: Japanese encephalitis virus SA-14; assay: Neutral red CPE inhibition assay, Japanese encephalitis SA-14 in Huh-7; format: cell-based; settings: Japanese encephalitis SA-14, Huh-7, neutral red assay, read-out: EC50 (inhibition of virus-induced CPE)
in vivo [22] = settings: male, cynomolgus, cynomolgus monkey, po, 300 mg/kg
Powassan virus Spooner [23] = assay: microbe, parasite or virus in culture; format: cell-based; settings: BHK-21, read-out: EC50 (inhibition of virus-induced CPE)
Adenovirus = assay: Antiviral specificity panel, Adenovirus in Vero; format: cell-based; settings: unidentified adenovirus, Adenovirus (DNA), read-out: EC50 (inhibit viral replication 50%)
[24] = test system: Respiratory syncytial virus; assay: Antiviral specificity panel, respiratory syncytial virus in HEp2; format: cell-based; settings: human respiratory syncytial virus, HEp-2, Respiratory syncytial virus (RNA), read-out: EC50 (inhibit viral replication 50%)
[25] = Plasma pharmacokinetics in Sprague Dawley rats after oral AT-752; settings: rat, oral AT-752 300 mg/kg, earliest time point measured
Powassan virus Spooner [26] = assay: microbe, parasite or virus in culture; format: cell-based; settings: BHK-21, read-out: EC90 (reduce virus yield by 1 log10) (converted)
Powassan virus LB [27] = assay: microbe, parasite or virus in culture; format: cell-based; settings: BHK-21, read-out: EC90 (reduce virus yield by 1 log10) (converted)
Usutu virus TC-508 [28] = assay: Neutral red CPE inhibition assay, Usutu TC-508 in Huh-7; format: cell-based; settings: Huh-7, read-out: EC50 (inhibition of virus-induced CPE)
[29] = Cardiomyocyte assay (CellTiter Glo); format: cell-based; settings: human iPS cardiomyocytes
Dengue-3 H87 = assay: Neutral red CPE inhibition assay, Dengue-3 H87 in Huh-7; format: cell-based; settings: Dengue virus; Dengue-3 H87, Huh-7, neutral red assay; read-out: EC50 (inhibition of virus-induced CPE)
Rift Valley fever virus = assay: microbe, parasite or virus in culture; format: cell-based; settings: Huh-7, read-out: EC50 (inhibit viral replication 50%)

SMILES: CNc1nc(N)nc2c1ncn2[C@@H]1O[C@H](CO[P@](=O)(N[C@@H](C)C(=O)OC(C)C)Oc2ccccc2)[C@@H](O)[C@@]1(C)F [AT-281]
- tolerability (adverse clinical signs) [1]: well tolerated
- EC90 [2]: 260 nM
- EC50 (Influenza A and B): > 100000 nM
- EC50 (Zika virus MR766): 640 nM
- EC50 [3]: 310 nM
- CC50 (in vitro [4]): 85000 to 170000 nM
- AUC(0-t) (in vivo [5]): 4.2 ± 0.5 µM·h
- Cmax (in vivo [5]): 2.6 ± 0.3 µM
- Tmax (in vivo [5]): 48 ± 18 min
- selectivity toward HCV (HCV): > 2,000
- EC50 (HCV; Hepatitis C virus, HCV (RNA), read-out: EC50 (inhibit viral replication 50%)): 50 nM
- EC50 [6]: 1410 nM
- EC50 (flaviviruses [7]; Dengue virus, DENV2 / DENV3, read-out: EC50 values, all other flaviviruses tested): 190 to 1410 nM
- EC50 (flaviviruses [7]; Orthoflavivirus, in Homo sapiens, 144 h, read-out: EC50 of the virus-induced cytopathic effect (CPE), range over Table 1): 210 to 1410 nM
- EC50 (Herpes simplex-1): > 100000 nM
- EC50 (HIV-1): > 100000 nM
- EC50 (Chikungunya virus): 54200 nM
- CC50 at 3 days [8]: > 170000 nM
- EC50 (Dengue-2 New Guinea C [9]): 480 nM
- EC90 [10]: 430 nM
- EC90 (Dengue-2 New Guinea C [11]): 640 nM
- EC90 (Usutu virus TC-508 [12]): 720 nM
- SI (CC50/EC50) (flaviviruses [13]): > 210
- cytotoxicity (flaviviruses [13]): Little to no cytotoxicity
- EC50 (Powassan virus LB [14]): 640 nM
- CC50 (in vitro [15]): > 100000 nM
- EC50 (DENV2 (clinical isolate) [16]; Dengue virus, DENV2, PBMC, read-out: EC50 (inhibition of virus-induced CPE), Dengue-2 clinical isolate, human PBMC): 600 nM
- EC50 (DENV2 (clinical isolate) [16]; read-out: EC50 (inhibition of virus-induced CPE), Dengue-2 clinical isolate, human PBMC): 800 nM
- CC50 (BHK-21 cells): > 170000 nM
- EC50 [17]: 10200 nM
- EC50 (DENV2 (clinical isolate) [18]; Dengue virus, DENV2, BHK-21, read-out: EC50 (inhibition of virus-induced CPE), Dengue-2 clinical isolate, BHK-21): 630 nM
- EC50 (DENV2 (clinical isolate) [18]; read-out: EC50 (inhibition of virus-induced CPE), Dengue-2 clinical isolate, BHK-21): 1100 nM
- time present in plasma [19]: more than 4 h
- EC50 (Rhinovirus): > 100000 nM
- CC50 (in vitro [20]): > 100000 nM
- EC50 [21]: 210 nM
- AUC(0-t) (in vivo [22]): 9.5 ± 3.7 µM·h
- Cmax (in vivo [22]): 3.7 ± 1.5 µM
- Tmax (in vivo [22]): 60 min
- EC50 (Powassan virus Spooner [23]): 290 nM
- EC50 (Adenovirus): > 100000 nM
- EC50 [24]: > 100000 nM
- plasma concentration at 1 h [25]: below the limit of quantitation
- EC90 (Powassan virus Spooner [26]): 740 nM
- EC90 (Powassan virus LB [27]): 2600 nM
- EC50 (Usutu virus TC-508 [28]): 190 nM
- CC50 at 3 days [29]: > 100000 nM
- EC50 (Dengue-3 H87): 770 nM
- EC50 (Rift Valley fever virus): > 100000 nM
